Marks after values point to notes of the source that are not given here.
Assays:
3T3-L1 adipocytes = experiment: Intracellular Ca2+ by fura-2 imaging in adipocytes; type: cell-based
Experimental: Cell culture: 3T3-L1 pre-adipocytes were incubated at a density of 8000 cells/cm^2 (10 cm^2 dish) and grown in the absence of insulin in Dulbecco's modified Eagle's medium (DMEM) containing 10% FBS and antibiotics (1% penicillin-streptomycin)(adipocyte medium) at 37° C. in 5% CO2 in air. Confluent pre-adipocytes were induced to differentiate with a standard differentiation medium consisting of DMEM-F10 (1:1, vol/vol) medium supplemented with 1% fetal bovine serum (FBS), 250 nM dexamethasone (DEXA), isobutylmethylxanthine (IBMX) (0.5 mM) and antibiotics. Pre-adipocytes were maintained in this differentiation medium for 3 days (unless specifically indicated) and subsequently cultured in adipocyte medium. Cultures were re-fed every 2-3 days to allow 90% cells to reach fully differentiation before treatment.
Intracellular Ca^2+ ([Ca^2+]i): [Ca^2+]i was measured using a fura-2 dual wavelength fluorescence imaging system. Adipocytes were plated and differentiated in 35 mm dishes with glass coverslips (P35G-0-14-C, MatTek Corporation). Prior to [Ca^2+]i measurement, cells were preincubated in serum-free medium overnight and rinsed with Hepes Balanced Salt Solution (HBSS) containing the following components (in mM): NaCl 138, CaCl2 1.8, MgSO4 0.8, NaH2PO4 0.9, NaHCO3 4, glucose 5, glutamine 6, Hepes 20, and bovine serum albumin 1%. Cells were loaded with fura-2 acetoxymethyl ester (AM) (10 μM) in the same buffer for 2 hr at 37° C. in a dark incubator with 5% CO2. To remove extracellular dye, cells were rinsed with HBSS 3 times and then postincubated at room temperature for an additional 1 hr for complete hydrolysis of cytoplasmic fura-2 AM. The dishes with dye-loaded cells were mounted on the stage of Nikon TMS-F fluorescence inverted microscope with a Cohu 4915 CCD camera. Fluorescent images were captured alternatively at excitation wavelength of […] with an emission wavelength of 520 nm. [Ca^2]i was calculated using a standard ratio equation. Each analysis evaluated responses of 8-10 representative whole cells. Images were analyzed with InCytIm2 version 4.62 imaging software (Intracellular Imaging, Cincinnati, Ohio). Images were calibrated using a fura-2 calcium imaging calibration kit (Molecular Probes, Eugene, Oreg.) to create a calibration curve in solution, and cellular calibration was accomplished using digitonin (25 μM) and pH 8.7 Tris-EGTA (100 mM) to measure maximal and minimal [Ca^2+]i levels.

Sirt1 = Sirt1 protein expression Western blot in myotubes; type: cell-based, mouse; details: C2C12 myotubes, FIG. 12
Experimental: Cell Culture: C2C12 and 3T3-L1 preadipocytes (American Type Culture Collection) were plated at a density of 8000 cells/cm^2 (10 cm^2 dish) and grown in Dulbecco's modified eagle's medium (DMEM) containing 10% fetal bovine serum (FBS), and antibiotics (growth medium) at 37° C. in 5% CO2. Confluent 3T3-L1 preadipocytes were induced to differentiate with a standard differentiation medium consisting of DMEM medium supplemented with 10% FBS, 250 nM dexamethasone, 0.5 mM 3-Isobutyl-1-methylxanthine (IBMX) and 1% penicillin-streptomycin. Preadipocytes were maintained in this differentiation medium for 3 days and subsequently cultured in growth medium. Cultures were re-fed every 2-3 days to allow >90% cells to reach fully differentiation before conducting chemical treatment. […]
Western blot: The Phospho-AMPKα (Thr172)- and Sirt1 (mouse specific)-antibody was obtained from Cell Signaling (Danvers, Mass.). […] Protein was measured by BCA kit (Thermo Scientific). […] Visualization and chemiluminescent detection was conducted using BioRad ChemiDoc instrumentation and software (Bio-Rad Laboratories, Hercules, Calif.) and band intensity was assessed using Image Lab 4.0 (Bio-Rad Laboratories, Hercules, Calif.), with correction for background and loading controls. P-AMPK was detected at 61-66 kDA and Sirt1 was detected at 104-115 kDA.

C2C12 myotubes = experiment: Mitochondrial biogenesis (mitochondrial mass, NAO probe); type: cell-based; details: FIG. 13
Experimental: Cell Culture: C2C12 and 3T3-L1 preadipocytes (American Type Culture Collection) were plated at a density of 8000 cells/cm^2 (10 cm^2 dish) and grown in Dulbecco's modified eagle's medium (DMEM) containing 10% fetal bovine serum (FBS), and antibiotics (growth medium) at 37° C. in 5% CO2. Confluent 3T3-L1 preadipocytes were induced to differentiate with a standard differentiation medium consisting of DMEM medium supplemented with 10% FBS, 250 nM dexamethasone, 0.5 mM 3-Isobutyl-1-methylxanthine (IBMX) and 1% penicillin-streptomycin. Preadipocytes were maintained in this differentiation medium for 3 days and subsequently cultured in growth medium. Cultures were re-fed every 2-3 days to allow >90% cells to reach fully differentiation before conducting chemical treatment. For differentiation of C2C12 cells, cells were grown to 100% confluence, transferred to differentiation medium (DMEM with 2% horse serum and 1% penicillin-streptomycin), and fed with fresh differentiation medium every day until myotubes were fully formed (3 days). Mitochondrial biogenesis: Mitochondrial biogenesis was assessed as change in mitochondrial mass, as previously described (2). The mitochondrial probe NAO (Invitrogen, Carlsbad, Calif.) was used to analyze mitochondrial mass by fluorescence (excitation 485 nm and emission 520 nm) and quantitative data was obtained with a fluorescence microplate reader (Synergy HT, BioTek Instruments, Winooski, Vt.). The intensity of fluorescence was expressed as arbitrary units per μg protein and normalized to control values within each assay.

## CC(C)C[C@H](N)C(=O)O [Leucine, leucine]
3T3-L1 adipocytes; Leucine 0.25 mM
  Intracellular Ca2+: 75.2^b ± nM
3T3-L1 adipocytes; Leucine 0.5 mM
  Intracellular Ca2+: 83.7^b ± nM
Sirt1
  Sirt1 protein levels, increase: unaffected
C2C12 myotubes
  increase in mitochondrial biogenesis (mitochondrial biomass): about 15%
